Experiment [1] deals with Trichophyton rubrum KD-1130. The experiment is described as follows: Antifungal activity evaluation test: minimum inhibitory concentration (MIC), broth dilution by reference to CLSI M38-A2. Format: cell-based. Conditions: KD1130, read-out: MIC (T. rubrum). The method in brief: (§1)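 MIC read visually as lowest concentration inhibiting growth by at least 80% relative to control after 4 days at 35° C. Trichophyton strains inoculated at 2×10^3 cells/mL final in MOPS-buffered RPMI 1640 (pH 7.0); compounds as 2-fold DMSO series, CLSI M38-A2 basis.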

The test system of experiment [2] is Trichophyton mentagrophytes SM-110. The experiment is described as above. Conditions: SM110, read-out: MIC (T. menta.). Format: cell-based. The essentials: as §1

This is an account of results in patent publication US10647675B2 (priority 2015, dated 2020).

SMILES strings stand for the structures. Converted amounts (≈) assume the structure as drawn.

`C#CCCc1ccc(Oc2ncccc2-c2cccnc2OC)cc1` [I-407, 2-[4-(but-3-yn-1-yl)phenoxy]-2′-methoxy-3,3′-bipyridine]: the MIC in experiment [1] and in experiment [2] was at most 0.1 µg/mL in each case.
`COc1ccccc1-c1cccnc1Oc1cnc(N(C)Cc2ccccc2)nc1` [I-339, N-benzyl-5-{[3-(2-methoxyphenyl)pyridin-2-yl]oxy}-N-methylpyrimidin-2-amine]: the MIC in experiment [1] and in experiment [2] was at most 0.1 µg/mL throughout.
As to `Fc1ccc(-c2cccnc2Oc2ccc(C(F)(F)F)nc2)c(F)c1` [I-8, 3-(2,4-difluorophenyl)-2-{[6-(trifluoromethyl)pyridin-3-yl]oxy}pyridine], the MIC in experiment [1] and in experiment [2] was at most 0.1 µg/mL in each case.
Take `FC(F)(F)c1ccc(Oc2ncncc2-c2cccc3ccnn23)cc1` [I-332, 7-{4-[4-(trifluoromethyl)phenoxy]pyrimidin-5-yl}pyrazolo[1,5-a]pyridine]: the MIC in experiment [1] and in experiment [2] was at most 0.1 µg/mL each time.
`CC(F)(F)c1ccc(Oc2ncccc2-c2ccnc3ccccc23)cn1` [I-108, 4-(2-{[6-(1,1-difluoroethyl)pyridin-3-yl]oxy}pyridin-3-yl)quinoline]: the MIC is 0.2 to 0.78 µg/mL (≈ 0.55 to 2.15 µM) in experiment [1] and at most 0.1 µg/mL in experiment [2].
For `COc1ccccc1-c1cccnc1Oc1ccc(OCc2ccccc2)nc1` [I-171, 2-{[6-(benzyloxy)pyridin-3-yl]oxy}-3-(2-methoxyphenyl)pyridine] the same measures were at most 0.1 µg/mL and at most 0.1 µg/mL.
Take `COc1c(F)cncc1-c1cccnc1Oc1ccc(C(F)(F)F)cc1` [I-212, 5′-fluoro-4′-methoxy-2-[4-(trifluoromethyl)phenoxy]-3,3′-bipyridine]: the MIC in experiment [1] and in experiment [2] was at most 0.1 µg/mL throughout.
For `COc1cc(-c2cccnc2Oc2ccc(C(C)(F)F)nc2)c(F)cc1F` [I-85], the minimal inhibitory concentration (MIC) in experiment [1] and in experiment [2] was at most 0.1 µg/mL throughout.
`CCc1cccc(Oc2ncccc2-c2cnccc2OC)c1` [I-265, 2-(3-ethylphenoxy)-4′-methoxy-3,3′-bipyridine]: the MIC in experiment [1] and in experiment [2] was 0.2 to 0.78 µg/mL (≈ 0.653 to 2.55 µM) each time.
Turning to `CCc1ccc(Oc2ncccc2-c2cnccc2C)cc1` [I-289, 2-(4-ethylphenoxy)-4′-methyl-3,3′-bipyridine], the MIC in experiment [1] and in experiment [2] was at most 0.1 µg/mL throughout.
Turning to `COc1ccncc1-c1nccnc1Oc1ccc2c(c1)CCCC2` [I-317, 2-(4-methoxypyridin-3-yl)-3-[(5,6,7,8-tetrahydronaphthalen-2-yl)oxy]pyrazine], the MIC in experiment [1] and in experiment [2] was at most 0.1 µg/mL in each case.
On to `CCc1ccc(Oc2ncccc2-c2ccncc2OC)cc1` [I-281, 2-(4-ethylphenoxy)-3′-methoxy-3,4′-bipyridine], for which the MIC in experiment [1] and in experiment [2] was at most 0.1 µg/mL in each case.
Regarding `COc1ccncc1-c1cccnc1Oc1ccc(F)cc1` [I-236, 2-(4-fluorophenoxy)-4′-methoxy-3,3′-bipyridine], the MIC in experiment [1] and in experiment [2] was 1.56 to 6.25 µg/mL (≈ 5.26 to 21.1 µM) throughout.
For `CC(F)(F)c1ccc(Oc2ncncc2-c2cccc3c2OCC3)cn1` [I-335, 4-{[6-(1,1-difluoroethyl)pyridin-3-yl]oxy}-5-(2,3-dihydrobenzofuran-7-yl)pyrimidine], the MIC in experiment [1] and in experiment [2] was at most 0.1 µg/mL each time.
With `CCc1ccc(Oc2ncccc2-c2cncc(C)c2OC)cc1` [I-286, 2-(4-ethylphenoxy)-4′-methoxy-5′-methyl-3,3′-bipyridine], the MIC in experiment [1] and in experiment [2] was at most 0.1 µg/mL each time.
As for `C#CCOCC(F)(F)c1ccc(Oc2ncccc2-c2ccccc2OC)cn1` [I-160, 2-({6-[1,1-difluoro-2-(2-propyl-1-yloxy)ethyl]pyridin-3-yl}oxy)-3-(2-methoxyphenyl)pyridine], the MIC in experiment [1] and in experiment [2] was at most 0.1 µg/mL each time.
Regarding `COc1ccncc1-c1cccnc1Oc1ccc(OC(F)F)cc1` [I-238, 2-[4-(difluoromethoxy)phenoxy]-4′-methoxy-3,3′-bipyridine], the MIC in experiment [1] and in experiment [2] was 0.2 to 0.78 µg/mL (≈ 0.581 to 2.27 µM) each time.
In the case of `COc1cc(-c2cncnc2Oc2ccc(C(C)(F)F)nc2)c(F)cc1F` [I-334, 4-{[6-(1,1-difluoroethyl)pyridin-3-yl]oxy}-5-(2,4-difluoro-5-methoxyphenyl)pyrimidine], the MIC in experiment [1] and in experiment [2] was at most 0.1 µg/mL each time.
Consider `COc1ccncc1-c1cccnc1Oc1ccc(C#N)cc1` [I-243, 4-{[4′-methoxy-(3,3′-bipyridin)-2-yl]oxy}benzonitrile], for which the MIC in experiment [1] and in experiment [2] was 0.2 to 0.78 µg/mL (≈ 0.659 to 2.57 µM) each time.
Turning to `CCN(C)CC(F)(F)c1ccc(Oc2ncccc2-c2ccccc2OC)cn1` [I-149, N-ethyl-2,2-difluoro-2-(5-{[3-(2-methoxyphenyl)pyridin-2-yl]oxy}-pyridin-2-yl)-N-methylethanamine], the MIC in experiment [1] and in experiment [2] was 0.2 to 0.78 µg/mL (≈ 0.501 to 1.95 µM) in each case.
As for `Fc1cncc(-c2cccnc2Oc2ccc(C(F)(F)F)cc2)c1Cl` [I-207, 4′-chloro-5′-fluoro-2-[4-(trifluoromethyl)phenoxy]-3,3′-bipyridine], the minimum inhibitory concentration (MIC) in experiment [1] and in experiment [2] was at most 0.1 µg/mL in each case.
For the molecule `CCOCC(F)(F)c1ccc(Oc2ncccc2-c2ccc(F)cc2OC)cn1` [I-155, 2-{[6-(2-ethoxy-1,1-difluoroethyl)pyridin-3-yl]oxy}-3-(4-fluoro-2-methoxyphenyl)pyridine], the MIC in experiment [1] and in experiment [2] was at most 0.1 µg/mL in each case.
In the case of `FC(F)(F)c1ccc(Oc2ncccc2-c2ccccc2OCC2CCC2)cn1` [I-55, 3-[2-(cyclobutylmethoxy)phenyl]-2-{[6-(trifluoromethyl)pyridin-3-yl]oxy}pyridine], the MIC in experiment [1] and in experiment [2] was 0.2 to 0.78 µg/mL (≈ 0.5 to 1.95 µM) each time.
As to `Cc1ccncc1-c1cccnc1Oc1ccc(C(F)(F)F)cc1` [I-206, 4′-methyl-2-[4-(trifluoromethyl)phenoxy]-3,3′-bipyridine], the minimal inhibitory concentration (MIC) in experiment [1] and in experiment [2] was at most 0.1 µg/mL each time.
As for `COCC1(c2ccc(Oc3ncccc3-c3cnccc3OC)cc2)CC1` [I-276, 4′-methoxy-2-{4-[1-(methoxymethyl)cyclopropyl]phenoxy}-3,3′-bipyridine], the MIC in experiment [1] and in experiment [2] was 0.2 to 0.78 µg/mL (≈ 0.552 to 2.15 µM) throughout.
Regarding `FC(F)(F)c1ccc(Oc2ncccc2-c2cccc3c(Cl)cnn23)cn1` [I-51, 3-chloro-7-(2-{[6-(trifluoromethyl)pyridin-3-yl]oxy}pyridin-3-yl)-pyrazolo[1,5-a]pyridine], the MIC in experiment [1] and in experiment [2] was at most 0.1 µg/mL in each case.
As to `FC(F)(F)c1ccc(Oc2ncccc2-c2cncc3cccnc23)cc1` [I-225, 8-{2-[4-(trifluoromethyl)phenoxy]pyridin-3-yl}-1,6-naphthyridine], the MIC in experiment [1] and in experiment [2] was at most 0.1 µg/mL each time.
Consider `FC(F)(F)c1ccc(Oc2ncccc2-c2ccccc2C2CC2)cn1` [I-59, 3-(2-cyclopropylphenyl)-2-{[6-(trifluoromethyl)pyridin-3-yl]oxy}pryidine], for which the MIC in experiment [1] and in experiment [2] was 0.2 to 0.78 µg/mL (≈ 0.561 to 2.19 µM) in each case.
For `COc1ccccc1-c1nccnc1Oc1ccc2c(c1)CCCC2` [I-315], the MIC in experiment [1] and in experiment [2] was at most 0.1 µg/mL throughout.
Turning to `FC(F)(F)c1ccc(Oc2ncccc2-c2cccc3cnccc23)cn1` [I-33, 5-(2-{[6-(trifluoromethyl)pyridin-3-yl]oxy}pyridin-3-yl)isoquinoline], the MIC in experiment [1] and in experiment [2] was 1.56 to 6.25 µg/mL (≈ 4.25 to 17 µM) throughout.

As a reminder, the MIC is the smallest concentration in the dilution series that meets the test's criterion for growth inhibition.
